In this test the target is T1, IRAK4 (Homo sapiens, UniProt Q9NWZ3).
T1 construct: endogenous in cells; host or cells: OCI-LY10
T1 sequence (Q9NWZ3 1-460): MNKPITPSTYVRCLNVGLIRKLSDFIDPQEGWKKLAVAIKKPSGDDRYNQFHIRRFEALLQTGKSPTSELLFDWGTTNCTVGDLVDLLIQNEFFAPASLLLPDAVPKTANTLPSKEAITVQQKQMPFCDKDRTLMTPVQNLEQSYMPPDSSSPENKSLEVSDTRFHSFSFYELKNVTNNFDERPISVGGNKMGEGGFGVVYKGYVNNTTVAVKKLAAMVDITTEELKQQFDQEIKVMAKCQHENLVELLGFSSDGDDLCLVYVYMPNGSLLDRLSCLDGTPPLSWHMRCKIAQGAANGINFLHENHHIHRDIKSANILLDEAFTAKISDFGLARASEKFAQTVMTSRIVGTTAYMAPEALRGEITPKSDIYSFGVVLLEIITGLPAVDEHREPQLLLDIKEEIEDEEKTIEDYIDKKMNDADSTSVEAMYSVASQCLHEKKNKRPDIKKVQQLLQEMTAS
As to the kind of experiment: IRAK4 MSD Degradation in OCI-LY10. It counts as cell-based. The settings on record: OCI-LY10 cells, Meso Scale Discovery, incubated 4 to 24 hours. The procedure: Degradation of IRAK4 in OCI-LY10 was quantitatively measured using Meso Scale Discovery technology. OCI-LY10 cells were seeded in 96-well plates (Corning 3799) with a density of 300,000 cells per well in 100 μL fresh media. Compounds were then added to the assay plates with a final top concentration of 1 to 10 μM in a 1:3 dilution series with total of 8 doses. The assay plates were then incubated for 4 to 24 hours at 37° C. under 5% CO2. The assay plates were then centrifuged for 5 minutes and the cell pellets were treated with 100 μL/well RIPA lysis buffer (Boston BioProducts BP-115D) with proteinase inhibitors. To prepare MSD assay plates (Meso Scale Discovery Catalog number L15XA-3), the plates were coated with 2 μg/mL capture antibody (mouse Anti-IRAK4 antibody [2H9], ab119942) in PBS, at 40 μL/well. The plates were then incubated overnight at 4° C., washed 3 times with 150 μL/well TBST buffer (Cell Signaling Technology, Catalog number 9997S) and blocked with 150 μL/well blocking buffer (Meso Scale Discovery Catalog number R93BA-4). Cell lysates were then added to MSD assay plates and the plates were incubated at room temperature for 1 hour. The plates were then washed 3 times with 150 μL/well TBST buffer and […] primary detection antibody (rabbit Anti-IRAK4 antibody [Y279], from Abcam. Catalog number ab32511, 1 μg/mL). The assay plates were then incubated at room temperature for 1 hour, washed 3 times with 150 μL/well TBST buffer and 254/well secondary detection antibody, SULFO-TAG anti-rabbit antibody were added (anti rabbit antibody from Meso Scale Discovery, Catalog number R32AB-1, 1 μg/mL). The assay plates were then incubated at room temperature for 1 hour, washed 3 times with 150 μL/well TBST buffer, and 150 μL/well MSD reading buffer (Meso Scale Discovery catalog number R92TC-2) was added. The plates were then analyzed by a MSD reader (Meso Scale Discovery, Model Quick Plex SQ 120). The data was then analyzed by software Prism 7.0 from GraphPad and the dose-depended IRAK4 degradation were fit using a three-parameter logistic equation to calculate DC50.
The letter codes for IRAK4 DC50 include: A (<0.01 μM); B (0.01-0.05 μM); C (0.05-0.1 μM); D (0.1-0.2 μM); and E (>0.2 μM).

Usually DC50 stands for the concentration at which degradation of the target reaches its halfway point. High values mean a less potent degrader, low ones a more potent degrader.

`N#Cc1cnc2c(C(=O)Nc3ccc4nn([C@H]5CC[C@H](CN6CCC(c7ccc8c(N9CCC(=O)NC9=O)cncc8c7)CC6)CC5)cc4c3)cnn2c1` [I-170, 6-Cyano-N-[2-[4-[[4-[4-(2,4-dioxohexahydropyrimidin-1-yl)-7-isoquinolyl]-1-piperidyl]methyl]cyclohexyl]indazol-5-yl]pyrazolo[1,5-a]pyrimidine-3-carboxamide]: the DC50 was above 200 nM.

In the case of `COc1cc2nn([C@H]3C[C@H](CN4CC(c5cccc6c5n(C)c(=O)n6C5CCC(=O)NC5=O)C4)C3)cc2cc1NC(=O)c1cccc(C(F)(F)F)n1` (stereo partly drawn) [I-46, N-[2-[3-[[3-[1-(2,6-dioxo-3-piperidyl)-3-methyl-2-oxo-benzimidazol-4-yl]azetidin-1-yl]methyl]cyclobutyl]-6-methoxy-indazol-5-yl]-6-(trifluoromethyl)pyridine-2-carboxamide], the DC50 was in the range of 10 to 50 nM.

Compound `Cc1ccc2c(c1C1CCN(C[C@H]3C[C@H](n4cc5cc(NC(=O)c6cccc(C(F)(F)F)n6)ccc5n4)C3)CC1)n(C)c(=O)n2C1CCC(=O)NC1=O` (stereo partly drawn) [I-148] returned a 50% degradation concentration (DC50) of 100 to 200 nM.

`COc1cc2nn([C@H]3CC[C@H](CN4CCN(c5cccc6c(N7CCC(=O)NC7=O)cncc56)CC4)CC3)cc2cc1NC(=O)c1ccnc(C(F)(F)F)n1` [I-300] registered a 50% degradation concentration (DC50) of 10 to 50 nM.

Compound `O=C1CCN(c2cncc3cc(C4CCN(C[C@H]5CC[C@H](c6nc7cnc(NC(=O)c8cccc(C(F)(F)F)n8)cc7s6)CC5)CC4)ccc23)C(=O)N1` [I-241] had a DC50 above 200 nM.

For `COC(=O)c1cc2nn([C@H]3CC[C@H](CN4CCN(c5cccc6c5n(C)c(=O)n6C5CCC(=O)NC5=O)CC4)CC3)cc2cc1NC(=O)c1cccc(C(F)(F)F)n1` (stereo partly drawn) [I-405], the half-maximal degradation concentration (DC50) fell in the range of 10 to 50 nM.

On to `COc1cc2nn(CCN(C)C3CCN(c4cccc5c4n(C)c(=O)n5C4CCC(=O)NC4=O)CC3)cc2cc1NC(=O)c1cnn2cccnc12` (stereo not drawn) [I-21, N-[2-[2-[[1-[1-(2,6-dioxo-3-piperidyl)-3-methyl-2-oxo-benzimidazol-4-yl]-4-piperidyl]-methyl-amino]ethyl]-6-methoxy-indazol-5-yl]pyrazolo[1,5-a]pyrimidine-3-carboxamide], for which the half-maximal degradation concentration (DC50) fell in the range of 100 to 200 nM.

On to `Cn1c(=O)n(C2CCC(=O)NC2=O)c2cccc(N3CCN(C[C@H]4CC[C@H](n5cc6cc(NC(=O)c7cccc(C(F)(F)F)n7)c(N7CCCC7)cc6n5)CC4)CC3)c21` (stereo partly drawn) [I-392], for which the DC50 was 10 to 50 nM.

Regarding `CN(CCCO[C@H]1C[C@H](Nc2cccc3c2C(=O)N(C2CCC(=O)NC2=O)C3=O)C1)C[C@H]1CC[C@H](n2cc3cc(NC(=O)c4cccc(C(F)(F)F)n4)ccc3n2)CC1` (stereo partly drawn) [I-354], the DC50 is above 200 nM.

`COc1cc2nn([C@H]3CC[C@H](CN4CCN(c5cccc6c5n(C)c(=O)n6C5CCC(=O)NC5=O)CC4)CC3)cc2cc1NC(=O)c1cncc(C#N)c1` (stereo partly drawn) [I-165]: the half-maximal degradation concentration (DC50) is below 10 nM.

With `COc1cc2nn([C@H]3CC[C@H](CN4CCN(c5c(C)ccc6c(N7CCC(=O)NC7=O)cncc56)CC4)CC3)cc2cc1NC(=O)c1cccc(C(F)(F)F)n1` [I-331], the DC50 was below 10 nM.

As for `COc1cc2nn([C@H]3CC[C@H](CN4CC=C(c5cccc6c5n(C)c(=O)n6C5CCC(=O)NC5=O)C4)CC3)cc2cc1NC(=O)c1cccc(C(F)(F)F)n1` (stereo partly drawn) [I-266], the 50% degradation concentration (DC50) was below 10 nM.

`COc1cc2nn([C@H]3CC[C@H](CN4C5CC4CN(c4cccc6c(N7CCC(=O)NC7=O)cncc46)C5)CC3)cc2cc1NC(=O)c1cccc(C(F)(F)F)n1` [I-220] yielded a DC50 below 10 nM.

In turn, `CN(C)c1cc2nn([C@H]3CC[C@H](CN4CCN(c5cccc6c5n(C)c(=O)n6C5CCC(=O)NC5=O)CC4)CC3)cc2cc1NC(=O)c1cccc(C(F)(F)F)n1` (stereo partly drawn) [I-388] registered a DC50 of 10 to 50 nM.

`COc1cc2nc([C@H]3CC[C@H](CN4CCC(c5cccc6c(N7CCC(=O)NC7=O)cncc56)CC4)CC3)sc2cc1NC(=O)c1cccc(C(F)(F)F)n1` [I-191]: the half-maximal degradation concentration (DC50) lay in the range of 10 to 50 nM.

In turn, `COc1cc2nn([C@H]3C[C@H](CN4CCC(c5c(Cl)ccc6c5n(C)c(=O)n6C5CCC(=O)NC5=O)CC4)C3)cc2cc1NC(=O)c1cccc(C(F)(F)F)n1` (stereo partly drawn) [I-87, N-[2-[3-[[4-[5-chloro-1-(2,6-dioxo-3-piperidyl)-3-methyl-2-oxo-benzimidazol-4-yl]-1-piperidyl]methyl]cyclobutyl]-6-methoxy-indazol-5-yl]-6-(trifluoromethyl)pyridine-2-carboxamide] yielded a 50% degradation concentration (DC50) below 10 nM.

Compound `Cn1c(=O)n(C2CCC(=O)NC2=O)c2cccc(C3CCN(C[C@H]4CC[C@H](n5cc6cc(NC(=O)c7cccc(C(F)(F)F)n7)ccc6n5)CC4)C(C(F)(F)F)C3)c21` (stereo partly drawn) [I-172] returned a DC50 above 200 nM.

Consider `Cn1c(=O)n(C2CCC(=O)NC2=O)c2ccc(F)c(C3CCN(C[C@H]4CC[C@H](n5cc6cc(NC(=O)c7cccc(C#N)n7)ccc6n5)CC4)CC3)c21` (stereo partly drawn) [I-128], for which the DC50 was below 10 nM.

`Cn1c(=O)n(C2CCC(=O)NC2=O)c2cccc(C3CCN(C[C@H]4CC[C@H](n5cc6cc(NC(=O)c7cccc(C(F)(F)F)n7)c(N7C[C@@H]8C[C@H]7CO8)cc6n5)CC4)CC3)c21` (stereo partly drawn) [I-55] registered a DC50 of 10 to 50 nM.

As for `COc1cc2nc([C@H]3CC[C@H](CN(C)CCCCNc4cccc5c4C(=O)N(C4CCC(=O)NC4=O)C5=O)CC3)sc2cc1NC(=O)c1cncc(F)c1` (stereo partly drawn) [I-479], the DC50 was above 200 nM.

In turn, `COc1cc2nn([C@H]3CC[C@H](CN4CCC(c5ccc(F)c6c5n(C)c(=O)n6C5CCC(=O)NC5=O)CC4)CC3)cc2cc1NC(=O)c1cccc(C(F)(F)F)n1` (stereo partly drawn) [I-51] returned a DC50 below 10 nM.

The compound `COc1cc2nn([C@H]3CC[C@H](CN(C)C4CCN(c5cccc6c5n(C)c(=O)n6C5CCC(=O)NC5=O)CC4)CC3)cc2cc1NC(=O)n1ccc2cccnc21` (stereo partly drawn) [I-113] registered a DC50 below 10 nM.

On to `COc1cc2nc([C@H]3CC[C@H](CN(C)CCCNc4cccc5c4C(=O)N(C4CCC(=O)NC4=O)C5=O)CC3)sc2cc1NC(=O)c1cncc(C#N)c1` (stereo partly drawn) [I-458], for which the DC50 was above 200 nM.

`Cn1c(=O)n(C2CCC(=O)NC2=O)c2cc(Cl)cc(C3CCN(C[C@H]4CC[C@H](n5cc6cc(NC(=O)c7cccc(C(F)(F)F)n7)c(F)cc6n5)CC4)CC3)c21` (stereo partly drawn) [I-72] gave a DC50 of 10 to 50 nM.

`CC(C)(O)c1cc2nc([C@H]3CC[C@H](CN4CCO[C@H](CCCNc5cccc6c5C(=O)N(C5CCC(=O)NC5=O)C6=O)C4)CC3)sc2cc1NC(=O)c1cncc(C#N)c1` (stereo partly drawn) [I-455] returned a 50% degradation concentration (DC50) above 200 nM.

In the case of `Cc1cc2nn([C@H]3CC[C@H](CN4CCN(c5cccc6c5n(C)c(=O)n6C5CCC(=O)N(C)C5=O)CC4)CC3)cc2cc1NC(=O)c1cccc(C(F)(F)F)n1` (stereo partly drawn) [I-404], the half-maximal degradation concentration (DC50) is above 200 nM.

`Cc1cccc(C(=O)Nc2cc3sc([C@H]4CC[C@H](CN5C[C@@H]6C[C@H]5CN6CCCNc5cccc6c5C(=O)N(C5CCC(=O)NC5=O)C6=O)CC4)nc3cc2C(C)(C)O)n1` (stereo partly drawn) [I-439]: the 50% degradation concentration (DC50) was 10 to 50 nM.

For the compound `CN(C[C@H]1CC[C@H](n2cc3cc(NC(=O)c4cccc(C(F)(F)F)n4)ncc3n2)CC1)C1CCN(c2cccc3c(N4CCC(=O)NC4=O)cncc23)CC1` [I-79], the DC50 is above 200 nM.

Turning to `COc1cc2nn([C@H]3CC[C@H](CN4CCN(c5cccc6c(N7CCC(=O)NC7=O)cncc56)[C@H](C)C4)CC3)cc2cc1NC(=O)c1cccc(C(F)(F)F)n1` [I-256], the DC50 is below 10 nM.

In turn, `CC(C)Nc1c(C(=O)N[C@H]2CC[C@H](CN3CCN(c4cccc5c4n(C)c(=O)n5C4CCC(=O)NC4=O)CC3)CC2)cnc2c1Oc1ccc(C#N)cc1O2` (stereo partly drawn) [I-410] had a half-maximal degradation concentration (DC50) above 200 nM.

On to `CN(CCCO[C@H]1C[C@@H](Nc2cccc3c2C(=O)N(C2CCC(=O)NC2=O)C3=O)C1)C[C@H]1CC[C@H](n2cc3cc(NC(=O)c4cccc(C(F)(F)F)n4)c(C(C)(C)O)cc3n2)CC1` (stereo partly drawn) [I-464], for which the half-maximal degradation concentration (DC50) was 10 to 50 nM.

Regarding `COc1cc2nn([C@H]3CC[C@H](CN4CCC(c5ccc6c(c5Cl)n(C)c(=O)n6C5CCC(=O)NC5=O)CC4)CC3)cc2cc1NC(=O)c1cccc(C(F)(F)F)n1` (stereo partly drawn) [I-177], the DC50 was below 10 nM.

`O=C1CCN(c2cncc3c(C4CCN(C[C@H]5CC[C@H](n6cc7cc(NC(=O)c8cccc(C(F)(F)F)n8)c(Cl)cc7n6)CC5)CC4)cccc23)C(=O)N1` [I-370] had a DC50 of 10 to 50 nM.
